Assay results from US12214092B2, “Systems and methods for treating biological fluids” (Cerus Corporation, priority 2017, dated 2025).
Like-named read-outs stand apart in the source and are kept apart here.

Columns and labels:
[1] = S-59 photoconversion in E. coli-spiked plasma, HPLC; type: physicochemical
Description: Bacterial titer results pre- and post-UVA treatment are shown in the following Table 4, along with the levels of bacterial inactivation obtained (log reduction). Additionally, the efficiency of photoconversion of amotosalen (S-59) was also determined and shown as percent remaining S-59 after each indicated treatment condition. LOQ represents the limit of quantification. Bacterial titers were analyzed pre- and post-UVA treatment to determine bacterial inactivation levels, which are shown as log reduction in the following Table 5. Additionally, S-59 photoconversion was also determined by HPLC and shown as both absolute concentration and percent remaining after each indicated treatment condition.

[2] = Amotosalen concentration in platelets in 100% plasma (75 μM/340 nm or 150 μM/INT-100), HPLC; type: physicochemical
[3] = Photochemical conversion of S-59 (150 μM) and photoproduct profile in plasma, PAS or PAS+plasma units, HPLC; type: physicochemical
[4] = 340 nm, 220 mL plasma, 15 μM, ~6.4 J/cm^2
[5] = 340 nm, 350 mL plasma, 15 μM, ~6.4 J/cm^2
[6] = INT-100, 220 mL plasma, 15 μM, ~6.4 J/cm^2
[7] = INT-100, 350 mL plasma, 15 μM, ~6.4 J/cm^2
[8] = 65/35 PAS+Plasma, 340 nm LED ~3.6 J/cm^2
[9] = 65/35 PAS+Plasma, 365 nm LED ~3.6 J/cm^2

Question: What does the source list for `Cc1oc2c(C)c3oc(=O)cc(C)c3cc2c1COCCN` [S-59, 3-(2-aminoethoxymethyl)-2,5,9-trimethylfuro[3,2-g]chromen-7-one]?
Answer: % S-59 remaining ([1]; 340 nm, 1.5 μM, ~3 J/cm^2): 9.0%; % S-59 remaining ([1]; 340 nm, 1.5 μM, ~6 J/cm^2): <LOQ; % S-59 remaining ([1]; 340 nm, 1.5 μM, ~9 J/cm^2): <LOQ; % S-59 remaining ([1]; 340 nm, 15 μM, ~3 J/cm^2): 13.5%; % S-59 remaining ([1]; 340 nm, 15 μM, ~6 J/cm^2): 2.5%; % S-59 remaining ([1]; 340 nm, 15 μM, ~9 J/cm^2): <LOQ; % S-59 remaining ([1]; 340 nm, 150 μM, ~3 J/cm^2): 39.9%; % S-59 remaining [1, 4]: 3.0%; S-59 Remaining [1, 4]: 0.5 µM; % S-59 remaining [1, 5]: 8.0%; S-59 Remaining [1, 5]: 1.1 µM; % S-59 remaining ([1]; INT-100, 15 μM, ~3 J/cm^2): 40.5%; % S-59 remaining ([1]; INT-100, 150 μM, ~3 J/cm^2): 63.0%; % S-59 remaining [1, 6]: 26.0%; S-59 Remaining [1, 6]: 4.0 µM; % S-59 remaining [1, 7]: 37.0%; S-59 Remaining [1, 7]: 5.5 µM; % Residual S-59 ([2]; 340/~6.4 (75 μM input)): 2.5%; S-59 concentration ([2]; 340/~6.4 (75 μM input), Post-UVA): 2.4 µM; S-59 concentration ([2]; 340/~6.4 (75 μM input), Pre-UVA): 93.3 µM; % Residual S-59 ([2]; 340/~7.2 (75 μM input)): 2.0%; S-59 concentration ([2]; 340/~7.2 (75 μM input), Post-UVA): 1.9 µM; S-59 concentration ([2]; 340/~7.2 (75 μM input), Pre-UVA): 94.0 µM; S-59 concentration ([2]; INT-100 (150 μM input), Post-CAD): 0.2 µM; S-59 concentration ([2]; INT-100 (150 μM input), Pre-UVA): 173.2 µM; % Residual S-59 ([2]; INT-100 ~3.6 J/cm^2 (150 μM input)): 40.1%; S-59 concentration ([2]; INT-100 ~3.6 J/cm^2 (150 μM input), Post-UVA): 69.4 µM; ATP (platelets; 340 nm): 4.0 mmol/×10^8; Lysis (platelets; 340 nm): 2.36%; pH (37° C.) (platelets; 340 nm): 6.61; ATP (platelets; 365 nm): 4.8 mmol/×10^8; Lysis (platelets; 365 nm): 1.72%; pH (37° C.) (platelets; 365 nm): 6.74; ATP (platelets; INT 100): 4.1 mmol/×10^8; Lysis (platelets; INT 100): 2.25%; pH (37° C.) (platelets; INT 100): 6.60; % of input S-59 remaining [3, 8]: 9.1%; Post-illumination HPLC area counts [3, 8]: 1249; % of input S-59 remaining [3, 9]: 46.2%; Post-illumination HPLC area counts [3, 9]: 5889; % of input S-59 remaining ([3]; PAS, 340 nm LED ~3 J/cm^2): 13.4%; Post-illumination HPLC area counts ([3]; PAS, 340 nm LED ~3 J/cm^2): 1436; % of input S-59 remaining ([3]; PAS, 365 nm LED ~3 J/cm^2): 36.8%; Post-illumination HPLC area counts ([3]; PAS, 365 nm LED ~3 J/cm^2): 4118; % of input S-59 remaining ([3]; PAS, INT100 ~6.4 J/cm^2): 26.2%; Post-illumination HPLC area counts ([3]; PAS, INT100 ~6.4 J/cm^2): 2905; % of input S-59 remaining ([3]; Plasma, 340 nm LED ~6.4 J/cm^2): 33.1%; Post-illumination HPLC area counts ([3]; Plasma, 340 nm LED ~6.4 J/cm^2): 4957; % of input S-59 remaining ([3]; Plasma, 365 nm LED ~6.4 J/cm^2): 66.8%; Post-illumination HPLC area counts ([3]; Plasma, 365 nm LED ~6.4 J/cm^2): 9675; % of input S-59 remaining ([3]; Plasma, INT100 ~6.4 J/cm^2): 60.5%; Post-illumination HPLC area counts ([3]; Plasma, INT100 ~6.4 J/cm^2): 8513
